Counter-ions that a name gives are not always drawn.

The experiment addresses T1, MerTK (Homo sapiens, UniProt Q12866).
T1 construct: endogenous in cells; host or cells: Jurkat cells
T1 sequence (Q12866 21-999): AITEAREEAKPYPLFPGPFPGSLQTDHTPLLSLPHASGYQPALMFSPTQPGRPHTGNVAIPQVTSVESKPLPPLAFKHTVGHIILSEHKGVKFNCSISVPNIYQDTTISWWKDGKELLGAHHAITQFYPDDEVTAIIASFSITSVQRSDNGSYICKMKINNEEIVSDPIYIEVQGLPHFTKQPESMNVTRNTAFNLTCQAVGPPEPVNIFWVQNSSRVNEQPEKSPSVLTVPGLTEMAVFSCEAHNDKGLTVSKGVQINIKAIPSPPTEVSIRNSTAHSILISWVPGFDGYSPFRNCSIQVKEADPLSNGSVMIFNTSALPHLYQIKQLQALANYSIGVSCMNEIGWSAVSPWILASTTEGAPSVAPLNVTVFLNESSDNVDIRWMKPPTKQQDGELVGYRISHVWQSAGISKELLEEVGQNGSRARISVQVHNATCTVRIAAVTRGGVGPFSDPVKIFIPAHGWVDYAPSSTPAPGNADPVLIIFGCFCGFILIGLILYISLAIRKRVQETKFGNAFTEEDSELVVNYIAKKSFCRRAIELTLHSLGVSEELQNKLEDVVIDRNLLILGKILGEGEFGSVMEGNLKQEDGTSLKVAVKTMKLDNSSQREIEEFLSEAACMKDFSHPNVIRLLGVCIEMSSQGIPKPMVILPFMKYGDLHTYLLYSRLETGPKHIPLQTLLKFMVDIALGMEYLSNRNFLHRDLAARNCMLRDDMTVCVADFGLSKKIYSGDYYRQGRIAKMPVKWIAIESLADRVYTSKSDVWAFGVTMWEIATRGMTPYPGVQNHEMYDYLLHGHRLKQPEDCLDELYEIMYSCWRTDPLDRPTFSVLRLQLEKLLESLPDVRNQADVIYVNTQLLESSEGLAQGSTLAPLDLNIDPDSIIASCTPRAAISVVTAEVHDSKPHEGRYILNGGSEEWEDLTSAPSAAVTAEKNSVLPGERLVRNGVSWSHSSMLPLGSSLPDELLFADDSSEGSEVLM
The experiment is described as follows: MerTk degradation in Jurkat cells (Western blot). The conditions noted are these: Jurkat, 4 h, 0.001-1 μM, 4 hour-incubation at 37° C., read-out: Jurkat Max % MerTK Degradation. The format is cell-based. In short, it runs like this: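 Jurkat cells treated 4 h at 37 °C with compound at 0.001-1 μM final. RIPA lysates quantified by BCA, then MerTK probed by Western blot against actin loading control with IR-dye secondaries and Odyssey imaging.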
(In general: In western blotting, separated proteins are transferred to a membrane and probed.)
As for `CN(C)c1cccc2c(S(=O)(=O)Nc3cccc(-c4cnc(NCCOCCN5CCN(Cc6ccc(-c7cn([C@H]8CC[C@H](O)CC8)c8nc(NCCC(F)(F)F)ncc78)cc6)CC5)nc4N4CCC(c5ccccc5)C4C(=O)O)c3)cccc12` (stereo partly drawn) [I-167, 1-(5-[3-[5-(Dimethylamino)naphthalene-1-sulfonamido]phenyl]-2-[[2-(2-[4-[(4-[7-[trans-4-hydroxycyclohexyl]-2-[(3,3,3-trifluoropropyl)amino]pyrrolo[2,3-d]pyrimidin-5-yl]phenyl)methyl]piperazin-1-yl]ethoxy)ethyl]amino]pyrimidin-4-yl)-3-phenylpyrrolidine-2-carboxylic acid], the Dmax was less than 20%.
Regarding `CN(C)c1cccc2c(S(=O)(=O)Nc3cccc(-c4cnc(NCCOCCOCCN5CCN(Cc6ccc(-c7cn([C@H]8CC[C@H](O)CC8)c8nc(NCCC(F)(F)F)ncc78)cc6)CC5)nc4N4CCC(c5ccccc5)C4C(=O)O)c3)cccc12` (stereo partly drawn) [I-168, 1-(5-[3-[5-(Dimethylamino)naphthalene-1-sulfonamido]phenyl]-2-([2-[2-(2-[4-[(4-[7-[trans-4-hydroxycyclohexyl]-2-[(3,3,3-trifluoropropyl)amino]pyrrolo[2,3-d]pyrimidin-5-yl]phenyl)methyl]piperazin-1-yl]ethoxy)ethoxy]ethyl]amino)pyrimidin-4-yl)-3-phenylpyrrolidine-2-carboxylic acid], the Dmax is less than 20%.
The figure for `CN(C)c1cccc2c(S(=O)(=O)Nc3cccc(-c4cnc(NCCOCCOCCOCCN5CCN(Cc6ccc(-c7cn([C@H]8CC[C@H](O)CC8)c8nc(NCCC(F)(F)F)ncc78)cc6)CC5)nc4N4CCC(c5ccccc5)C4C(=O)O)c3)cccc12` (stereo partly drawn) [I-169, 1-(5-[3-[5-(dimethylamino)naphthalene-1-sulfonamido]phenyl]-2-(12-[4-[(4-[7-[trans-4-hydroxycyclohexyl]-2-[(3,3,3-trifluoropropyl)amino]pyrrolo[2,3-d]pyrimidin-5-yl]phenyl)methyl]piperazin-1-yl]-4,7,10-trioxa-1-azadodecan-1-yl)pyrimidin-4-yl)-3-phenylpyrrolidine-2-carboxylic acid] is less than 20%.
For `Cn1c(=O)n([C@H]2CCC(=O)NC2=O)c2ccc(CCO[C@H]3C[C@H](N4CCN(Cc5ccc(-c6cn([C@H]7CC[C@H](O)CC7)c7nc(NCCC(F)(F)F)ncc67)cc5)CC4)C3)cc21` [I-170, 3-(3-methyl-2-oxo-5-[2-[trans-3-[4-[(4-[7-[trans-4-hydroxycyclohexy1]-2-[(3,3,3-trifluoropropyl)amino]pyrrolo[2,3-d]pyrimidin-5-yl]phenyl)methyl]piperazin-1-yl]cyclobutoxy]ethyl]-1,3-benzodiazol-1-y1)piperidine-2,6-dione; formic acid], the Dmax is more than 50%.
Next, `Cn1c(=O)n([C@H]2CCC(=O)NC2=O)c2ccc(CCCOCCOC3CCN(C[C@H]4CC[C@@H](c5cn([C@H]6CC[C@H](O)CC6)c6nc(NCCC(F)(F)F)ncc65)CC4)CC3)cc21` [I-171, 3-[3-methyl-2-oxo-5-(3-[2-[(1-[[cis-4-[7-[trans-4-hydroxycyclohexyl]-2-[(3,3,3-trifluoropropyl)amino]pyrrolo[2,3-d]pyrimidin-5-yl]cyclohexyl]methyl]piperidin-4-yl)oxy]ethoxy]propyl)-1,3-benzodiazol-1-y1]piperidine-2,6-dione]: more than 50%.
The figure for `Cn1c(=O)n([C@H]2CCC(=O)NC2=O)c2ccc(CCCOCCOCC3CCN(C[C@H]4CC[C@H](c5cn([C@H]6CC[C@H](O)CC6)c6nc(NCCC(F)(F)F)ncc65)CC4)CC3)cc21` [I-172, 3-[3-methyl-2-oxo-5-(3-[2-[(1-[[trans-4-[7-[trans-4-hydroxycyclohexy1]-2-[(3,3,3-trifluoropropyl)amino]pyrrolo[2,3-d]pyrimidin-5-yl]cyclohexyl]methyl]piperidin-4-yl)methoxy]ethoxy]propy1)-1,3-benzodiazol-1-yl]piperidine-2,6-dione] is more than 50%; for `Cc1ncsc1-c1ccc(CNC(=O)[C@@H]2C[C@@H](O)CN2C(=O)[C@@H](NC(=O)COCCOCCOCCOCCN2CCN(Cc3ccc(-c4cn([C@H]5CC[C@H](O)CC5)c5nc(NCCC(F)(F)F)ncc45)cc3)CC2)C(C)(C)C)cc1` [I-173, (2S,4R)-1-[(2S)-3,3-dimethyl-2-(14-[4-[(4-[7-[(1r,4r)-4-hydroxycyclohexyl]-2-[(3,3,3-trifluoropropyl)amino]pyrrolo[2,3-d]pyrimidin-5-yl]phenyl)methyl]piperazin-1-yl]-3,6,9,12-tetraoxatetradecanamido)butanoyl]-4-hydroxy-N-[[4-(4-methyl-1,3-thiazol-5-yl)phenyl]methyl]pyrrolidine-2-carboxamide] it is 20 to 50%; for `Cc1ncsc1-c1ccc(CNC(=O)[C@@H]2C[C@@H](O)CN2C(=O)[C@@H](NC(=O)C2(F)CC2)C(C)(C)C)c(OCCOCCN2CCN(Cc3ccc(-c4cn([C@H]5CC[C@H](O)CC5)c5nc(NCCC(F)(F)F)ncc45)cc3)CC2)c1` [I-174] it is 20 to 50%.
The figure for `CCC[C@H](C)Nc1ncc2c(-c3ccc(CN4CCN(C5CC(OCCc6ccc7c(c6)n(C)c(=O)n7C6CCC(=O)NC6=O)C5)CC4)cc3)cn([C@H]3CC[C@H](O)CC3)c2n1` (stereo partly drawn) [I-175, 3-[3-methyl-2-oxo-5-[2-(3-[4-[(4-[2-[(2S)-pentan-2-ylamino]-7-[trans-4-hydroxycyclohexyl]pyrrolo[2,3-d]pyrimidin-5-yl]phenyl)methyl]piperazin-1-yl]cyclobutoxy)ethyl]-1,3-benzodiazol-1-yl]piperidine-2,6-dione] is more than 50%; for `CCC[C@@H](C)Nc1ncc2c(-c3ccc(CN4CCN(CCCO[C@H]5CCN(Cc6ccc7c(c6)n(C)c(=O)n7C6CCC(=O)NC6=O)C5)CC4)cc3)cn([C@H]3CC[C@H](O)CC3)c2n1` (some centres unmarked) [I-176] it is more than 50%.
Turning to `CCC[C@H](C)Nc1ncc2c(-c3ccc(CN4CCN(CCCO[C@H]5CCN(Cc6ccc7c(c6)n(C)c(=O)n7C6CCC(=O)NC6=O)C5)CC4)cc3)cn([C@H]3CC[C@H](O)CC3)c2n1` (stereo partly drawn) [I-177, 3-(3-methyl-2-oxo-5-[[(3S)-3-(3-[4-[(4-[2-[(2S)-pentan-2-ylamino]-7-[trans-4-hydroxycyclohexyl]pyrrolo[2,3-d]pyrimidin-5-yl]phenyl)methyl]piperazin-1-yl]propoxy)pyrrolidin-1-yl]methyl]-1,3-benzodiazol-1-yl)piperidine-2,6-dione], the Dmax was more than 50%.
Next, `CCC[C@H](C)Nc1ncc2c(-c3ccc(CN4CCN(CCCOC5CN(Cc6ccc7c(c6)n(C)c(=O)n7C6CCC(=O)NC6=O)C5)CC4)cc3)cn([C@H]3CC[C@H](O)CC3)c2n1` (stereo partly drawn) [I-178, 3-(3-methyl-2-oxo-5-[[3-(3-[4-[(4-[2-[(2S)-pentan-2-ylamino]-7-[trans-4-hydroxycyclohexyl]pyrrolo[2,3-d]pyrimidin-5-yl]phenyl)methyl]piperazin-1-yl]propoxy)azetidin-1-yl]methyl]-1,3-benzodiazol-1-yl)piperidine-2,6-dione]: more than 50%; `Cc1ncsc1-c1ccc(CNC(=O)[C@@H]2C[C@@H](O)CN2C(=O)[C@@H](NC(=O)C2(F)CC2)C(C)(C)C)c(OCCCCN2CCN(Cc3ccc(-c4cn([C@H]5CC[C@H](O)CC5)c5nc(NCCC(F)(F)F)ncc45)cc3)CC2)c1` [I-179, (2S,4R)-1-[(2S)-2-[(1-fluorocyclopropyl)formamido]-3,3-dimethylbutanoyl]-4-hydroxy-N-[[4-(4-methyl-1,3-thiazol-5-yl)-2-(4-[4-[(4-[7-[trans-4-hydroxycyclohexyl]-2-[(3,3,3-trifluoropropyl)amino]pyrrolo[2,3-d]pyrimidin-5-yl]phenyl)methyl]piperazin-1-yl]butoxy)phenyl]methyl]pyrrolidine-2-carboxamide]: 20 to 50%; `Cc1cc(CNCc2ccc(C(=O)N3CCC(C4CCN(Cc5ccc(-c6cn([C@H]7CC[C@H](O)CC7)c7nc(NCCC(F)(F)F)ncc67)cc5)CC4)CC3)cc2)ccc1-c1ccc2nn(CC3CC3)cc2c1` [I-180, trans-4-[5-(4-[[1-(4-[[([4-[2-(Cyclopropylmethyl)indazol-5-yl]-3-methylphenyl]methyl)amino]methyl]benzoyl)-[4,4-bipiperidin]-1-yl]methyl]phenyl)-2-[(3,3,3-trifluoropropyl)amino]pyrrolo[2,3-d]pyrimidin-7-yl]cyclohexan-1-ol hydrochloride]: less than 20%.

These data come from patent publication US20260042762A1 (Kymera Therapeutics, Inc., priority 2018, published 2026).
